We go through 15 compounds from paper PMC12420824, “Discovery of a selective alpha-kinase 1 inhibitor for the rare genetic disease ROSAH syndrome” (Nature Communications, 2025).

Values joined by “and” are separate entries in the source; they are usually repeats but may differ in a detail not shown here. Identical values can stand only once.

For experiment [1], the target named is T1, ALPK1 (Homo sapiens, UniProt Q96QP1). Nature of the experiment: Western blotting-based in vitro kinase assay. The experiment is classed as biochemical. As to conditions: 20 µM. The protocol: Compounds were tested at a single final concentration of 20 μM in an in vitro kinase assay including 30 nM recombinant ALPK1 (purified from 293-F cells stimulated with 4% s.t. lysate 4 h before cell lysis) and 1.6 μM His-tagged TIFA in a 20 µl volume. […] An in vitro kinase reaction was conducted at 27 °C for 40 min in the following buffer: 20 mM HEPES pH 7.0, 1 mM TCEP, 10 mM MgCl2, 0.1 mM Na3VO4, 0.6 μM BSA, 5% DMSO and 25 μM ATP. […] After these in vitro kinase reactions, the kinase-substrate mix was fractionated by electrophoresis on denaturing SDS-PAGE gels and transferred to Immobilon-P PVDF membranes (Millipore, MA, USA). Membranes were blocked with 5% milk in TBS with 0.1% Triton-X100. Phosphorylated TIFA were detected by incubating the membrane with an anti-phospho-threonine (#9386, Cell Signaling Technology, Danvers, MA, USA) antibody. […]
compounds used in the Western blotting to measure the ability of compounds to inhibit the ALPK1-mediated phosphorylation of TIFA. (b) Example of the biochemical approach to validate hits from the thermal shift assay screen. ALPK1 binding compounds were tested in triplicate in an in vitro kinase assay at a final concentration of 20 µM, and the inhibitory effect was evaluated by comparing the phosphorylated TIFA level to that for the no compound control after the kinase reaction by Western blotting.
Phosphorylated TIFA was detected using an anti-phospho-theronine antibody. ALPK1 binders fell into three categories: inhibitors (e.g. WXHTS0017849, WXHTS WXHTS0037341), activators (e.g.
WXHTS0086594), and those with no effect (e.g. WXHTS0035788). […]

For experiment [2], the target named is T2, full-length ALPK1 (Homo sapiens, UniProt Q96QP1).
T2 construct: recombinant full-length ALPK1 kinase purified from Sf9 cells; 3xFlag (C); made in house; host or cells: Sf9 insect cells (baculovirus, pFAST-BAC)
Description: Thermal shift assay (TSA). The following applies: for increase in melting temperature (Tm): pilot TSA screen / assay validation; for TSA Tm Increase: compound at 10 μM. The experiment is classed as binding. The protocol:
A small molecule library containing ~160,000 compounds (HTS Diversity V2) was prepared by WuXi AppTec (Shanghai, China) in 384 well thin-wall qPCR plates, with 20 nL of 10 mM compound preparations in each well. On each screening plate, 2 columns of wells were loaded with 20 nL of pure DMSO to leave spaces for negative controls (no compounds) and the positive control (AS-252424). […] The mixture was spun down at 1000 rpm for 1 min, then immediately applied to a protein melting reaction on a Roche LightCycler® 480 II Real-time PCR system, heating the mixture from 30 °C to 50 °C at the ramp rate of 0.02 °C/s while continuously acquiring the fluorescence signal. The melting temperature (Tm) of the ALPK1 protein with or without each compound was calculated using the Protein Thermal Shift™ Analysis Desktop Software v1.2 (Thermo Fisher Scientific). For positive control wells, 40 μM AS-252424 in 5 μl compound solvent was added manually and used as a positive control in the thermal shift screening.

Experiment [3] deals with T2, full-length ALPK1. Description: Surface plasmon resonance (SPR). The experiment is classed as binding. As to conditions: with 500 nM ADP-L-heptose. The protocol: SPR assays were conducted on a Biacore 8 K (Cytiva). […] For analyte testing, flow rates were maintained at 30 µL/min. […] The data collection rate was 10 Hz, and all data were double referenced and solvent corrected. Analysis was performed using Biacore Insight Evaluation software version 5. The 1:1 kinetic binding affinity models were used to fit the data, and all parameters were fitted globally.
On the technique in general: In SPR one partner is held on a chip, and binding of the other changes the refractive index at the surface.

Experiment [4] has as its system HEK-293 cells transfected with GFP-TIFA. Nature of the experiment: DF-006-induced TIFAsome formation. As to conditions: 1 μM DF-006 alone.
Description: Curve fitting and IC50 value calculations were performed with GraphPad Prism 6.
HEK-293 cells were purchased from the Cell Bank of The Chinese Academy of Sciences and routinely cultured in DMEM/High-Glucose (Hyclone). For TIFAsome analyses, the coding sequence for the GFP-TIFA fusion protein was cloned into the pcDNA3.1 plasmid. […] Each condition was conducted in sextuplicate. Cells were fixed with 4% paraformaldehyde and stained with DAPI (Shanghai Zhenghuang, Shanghai, China; C1005). Fluorescent images were acquired using a Motic upright fluorescent microscope (PA53 BIO FS6).
The target of experiment [5] is T1, ALPK1. Description: biochemical.
Description: The 10 µL kinase reactions were allowed to proceed for 1.5 h at 27 °C. Kinase reactions were terminated by adding 10 µL of the HTRF KinEASE detection kit buffer (Cisbio, Bedford, MA, USA; 62SDBRDF) containing monoclonal anti-HA-Eu cryptate (Cisbio; 610HAKLB) and monoclonal Anti HA-d2 to each well. TIFA phosphorylation levels were monitored through the detection of oligomerization signals generated upon TIFAsome assembly. Both donor and acceptor antibodies recognize TIFA and will generate a TR-FRET signal when bound to the same TIFA oligomer formed upon TIFA phosphorylation. […] The TR-FRET signals were calculated as the ratio of the acceptor and donor emission signals with the formula below:
ALPK1 kinase activity was calculated as follows: % Activity = 100% × (TR-FRET signal of test compound - mean TR-FRET signal of no ATP 1% DMSO control) / (mean TR-FRET signal of 1% DMSO control – mean TR-FRET signal of no ATP 1% DMSO control).
In multi-dose assays, compound activity was calculated via logarithmic interpolation. Concentration-response curves were fitted with a four-parameter logistic nonlinear regression model and the IC50 values for these compounds were calculated in GraphPad Prism 6.
The test system of a further experiment is ROSAH patients. As to conditions: ROSAH patients ref 3; cited from earlier work.

T2 sequence (Q96QP1 whole entry): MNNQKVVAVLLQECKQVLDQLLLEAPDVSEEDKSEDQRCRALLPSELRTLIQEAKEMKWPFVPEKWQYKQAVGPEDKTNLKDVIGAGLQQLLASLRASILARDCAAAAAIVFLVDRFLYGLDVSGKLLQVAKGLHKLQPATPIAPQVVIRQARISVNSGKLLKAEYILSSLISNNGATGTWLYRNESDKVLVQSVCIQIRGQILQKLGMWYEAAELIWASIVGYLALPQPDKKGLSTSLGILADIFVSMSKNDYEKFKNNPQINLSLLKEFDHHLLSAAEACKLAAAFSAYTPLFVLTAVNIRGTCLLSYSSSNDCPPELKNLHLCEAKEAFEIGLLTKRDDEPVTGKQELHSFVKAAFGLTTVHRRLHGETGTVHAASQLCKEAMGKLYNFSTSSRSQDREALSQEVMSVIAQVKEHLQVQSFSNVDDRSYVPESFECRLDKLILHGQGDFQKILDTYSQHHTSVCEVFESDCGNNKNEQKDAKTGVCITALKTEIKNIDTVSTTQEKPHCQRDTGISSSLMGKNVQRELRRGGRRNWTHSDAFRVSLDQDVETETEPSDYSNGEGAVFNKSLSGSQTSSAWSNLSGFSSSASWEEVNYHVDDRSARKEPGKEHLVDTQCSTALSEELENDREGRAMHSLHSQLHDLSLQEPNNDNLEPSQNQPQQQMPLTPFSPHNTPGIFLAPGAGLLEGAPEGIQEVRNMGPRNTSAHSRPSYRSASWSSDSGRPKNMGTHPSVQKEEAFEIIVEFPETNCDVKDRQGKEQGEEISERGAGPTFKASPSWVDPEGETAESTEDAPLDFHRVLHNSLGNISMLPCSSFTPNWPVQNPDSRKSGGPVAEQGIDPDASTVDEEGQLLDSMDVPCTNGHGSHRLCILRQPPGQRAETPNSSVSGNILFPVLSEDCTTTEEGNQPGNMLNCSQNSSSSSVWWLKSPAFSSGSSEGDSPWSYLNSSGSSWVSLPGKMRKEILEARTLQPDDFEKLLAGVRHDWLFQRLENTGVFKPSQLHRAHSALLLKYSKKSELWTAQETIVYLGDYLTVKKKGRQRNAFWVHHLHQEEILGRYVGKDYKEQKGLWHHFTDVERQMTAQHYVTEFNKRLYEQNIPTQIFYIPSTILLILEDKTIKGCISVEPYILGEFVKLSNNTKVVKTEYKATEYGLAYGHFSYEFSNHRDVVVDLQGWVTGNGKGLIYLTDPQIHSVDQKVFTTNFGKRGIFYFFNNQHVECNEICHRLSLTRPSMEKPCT
T1 sequence (Q96QP1 whole entry): as above

Turning to `Cc1ccc(NC(=O)NCC(O)c2ccc(F)cc2F)cc1Cl` (stereo not shown) [WXHTS0086594], on ALPK1 [1], the “effect on ALPK1-mediated TIFA phosphorylation” value (shortened to “effect”) is listed as “activators”.

For the compound `Nc1ncnc2c1ncn2[C@@H]1O[C@H](COP(=O)(O)OP(=O)(O)O)[C@@H](O)[C@H]1O` [ADP], the “increase in melting temperature (Tm)” value on full-length ALPK1 [2] came to 1.4 °C.

As usually defined, the Kd is the free concentration of one partner at which half of the binding sites on the other are occupied at equilibrium, for simple one-to-one binding. Low readings indicate higher affinity, high ones lower affinity. As for `Cc1ccc(C(=O)c2cc(O)c(O)c([N+](=O)[O-])c2)cc1` [Tolcapone], the Kd on full-length ALPK1 [3] was found to be 97 µM. Moreover, on ALPK1 [1], the “effect” value is reported as “inhibit ALPK1 activity”. Also, the “TSA Tm Increase” value at full-length ALPK1 [2] was found to be 2.2 °C.

For `CC(=O)Oc1ccccc1-c1cccc(Cn2cccc(C(=O)Nc3ccc(-c4ccccc4)cc3)c2=O)c1` [WXHTS0035788], the “effect” value at ALPK1 [1] is “no effect”.

Regarding `CC(=O)OCC(F)C1OC(OP(=O)(O)OP(O)(=S)OCC2OC(n3cnc4c(N)ncnc43)C(O)C2O)C(OC(C)=O)C(OC(C)=O)C1OC(C)=O` [DF-006, D-glycero-D-manno-6-fluoro-2,3,4,7-Ac-heptose-1β-S-ADP, reference compound], the “Cells with TIFAsomes /GFP positive cells (%)” value in experiment [4] was 50.51% and 61.9% and 51.29% and 50.95% and 60.98%.

With `Nc1nc(C2(c3ccccc3)CCCC2)cs1` [WXHTS0037341], at ALPK1 [1], the “effect” value is reported as “inhibitors”.

As to `CO[C@@H]1[C@@H](OC(N)=O)[C@@H](O)[C@H](Oc2ccc3c(O)c(NC(=O)c4ccc(O)c(CC=C(C)C)c4)c(=O)oc3c2C)OC1(C)C` [Novobiocin], the “TSA Tm Increase” value at full-length ALPK1 [2] stood at 1.4 °C.

`O=C1NC(=O)/C(=C/c2ccc(-c3ccc(F)cc3O)o2)S1` [AS-252424] displayed a Kd at full-length ALPK1 [3] of 1 µM. At full-length ALPK1 [2], the “TSA Tm Increase” value is 3.4 °C and the “increase in melting temperature (Tm)” value came to 3.4 °C.

For `Brc1c(Br)c(Br)c2n[nH]nc2c1Br` [Tbb], at full-length ALPK1 [3], binding was characterised by a dissociation constant (Kd) of 265 µM. In addition, the “TSA Tm Increase” value on full-length ALPK1 [2] is 3.4 °C.

In the case of `Nc1ncnc2c1ncn2[C@@H]1O[C@H](COP(=O)(O)OP(=O)(O)OP(=O)(O)O)[C@@H](O)[C@H]1O` [ATP], the “increase in melting temperature (Tm)” value at full-length ALPK1 [2] was 1.1 °C.

Compound `O=C(O)c1cccnc1Nc1cccc(C(F)(F)F)c1` [Niflumic acid] registered a Kd at full-length ALPK1 [3] of 7 µM. For the same compound, on full-length ALPK1 [2], the “TSA Tm Increase” value is 1.8 °C.

Consider `Nc1c(-c2ccncc2)sc2nc(-c3cccs3)ccc12` [WXHTS0017849], for which the “effect” value at ALPK1 [1] was “inhibitors”.

What is called IC50 is the midpoint of a concentration-inhibition curve. The low end stands for inhibition by little substance, the high end for a need for much substance. At full-length ALPK1 [3], `CC1=NN(c2ccc(C)c(C)c2)C(=O)/C1=N\Nc1cccc(-c2cccc(C(=O)O)c2)c1O` [Eltrombopag] came in with a Kd of 10 µM. The “effect” value at ALPK1 [1] is “inhibit ALPK1 activity”. The IC50 against ALPK1 [5] came out at 7.6 µM. The “TSA Tm Increase” value at full-length ALPK1 [2] turned out to be 3.6 °C.

With “tocilizumab: anti-IL-6 drug given off-label to ROSAH patients”, in the experiment with ROSAH patients, the intraocular inflammation entry is listed as “improved intraocular inflammation (two of two patients)”.

Regarding `O=C(O)c1cc(/N=N/c2ccc(S(=O)(=O)Nc3ccccn3)cc2)ccc1O` [Sulfasalazine], binding on full-length ALPK1 [3] was put at a Kd of 281 µM. Further, the “TSA Tm Increase” value at full-length ALPK1 [2] amounted to 2.0 °C.
